Assay results as given in article PMC9246869, “Allosteric inhibition of PPM1D serine/threonine phosphatase via an altered conformational state” (Nature Communications, 2022).
Values joined by “and” are separate entries in the source; they are usually repeats but may differ in a detail not shown here. Equal entries are not always repeated.

Columns and labels:
[1] = target: T1, PPM1D1–420 (Homo sapiens, UniProt O15297); test: FDP (fluorescein diphosphate) enzymatic assay; type: biochemical; set-up: FDP assay rate (Fig 3B): unit not given here; conditions: for FDP assay rate (Fig 3B): triplicates; for FDP Assay, signal relative to 0 nM GSK (=100): PPM1D1-420, individual runs, listed as GSK
T1 construct: PPM1D1–420 was PCR-amplified from the synthesized gene with BsaI sites; His(6)-SUMO (N, cleaved yes); made in house; host or cells: E. coli BL21 (DE3)
T1 sequence (O15297 1-420): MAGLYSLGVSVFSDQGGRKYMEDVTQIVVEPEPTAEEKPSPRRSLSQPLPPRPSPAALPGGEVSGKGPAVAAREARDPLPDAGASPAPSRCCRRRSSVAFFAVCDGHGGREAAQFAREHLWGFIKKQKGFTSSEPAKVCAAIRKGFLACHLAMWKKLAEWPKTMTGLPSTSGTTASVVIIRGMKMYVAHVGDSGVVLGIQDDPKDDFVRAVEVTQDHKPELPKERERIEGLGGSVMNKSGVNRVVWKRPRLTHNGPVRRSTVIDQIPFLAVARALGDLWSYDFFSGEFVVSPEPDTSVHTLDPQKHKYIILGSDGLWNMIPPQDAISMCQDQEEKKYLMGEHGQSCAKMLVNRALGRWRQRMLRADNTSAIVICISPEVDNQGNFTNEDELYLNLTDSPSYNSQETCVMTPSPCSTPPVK
Method: The FDP assay was adapted from reported protocol with minor modifications. Fluorescein diphosphate tetra-ammonium salt (CAS 217305-49-2) was purchased from AAT Bioquest (Cat No.11600). The assay was carried out on a 384-well plate (Corning Cat No.3575) with assay buffer containing 50 mM Tris (pH 7.5), 50 mM NaCl, 30 mM MgCl2, 0.01% tween 20, and 2% DMSO. Reactions were initiated with the addition of FDP to a solution containing wild-type PPM1D or one of its variants, to a final concentration of 5 nM for PPM1D and 100 μM for FDP (or as indicated in Kcat/KM measurements). A fluorescent signal was detected on a Spectramax microplate reader (485/530 nm) for the next 15 min at room temperature with an interval for data collection of 45 s. For the IC50 measurement, the compound was pre-incubated with PPM1D for 1 h before addition of the substrate.

[2] = target: T1, PPM1D1–420; test: Differential scanning fluorimetry (DSF); type: binding; set-up: key to DSF Trial 1 (Tm) / DSF Trial 2 (Tm) / DSF Trial 3 (Tm) / DSF average (Tm) / DSF melting temperature with GSK2830371 / DSF melting temperature with GSK2830371, Average: melting temperature Tm in °C
Method: The purified protein constructs were mixed in the assay buffer containing 25 mM HEPES pH 7.5, 10 mM MgCl2, 150 mM NaCl. The sample preparation for the DSF assay included incubating the protein constructs (final concentration 0.2–0.4 mg/mL) with either DMSO alone (control) or with 40 µM GSK2830371 for 30 min before the addition of the Sypro orange dye (final concentration 10×). The final reaction volume of 10 µL was pipetted into a 384 multi-well clear plate (Light Cycler 480), sealed using a foil and spun down at 1000 × g for 2 min. The fluorescence emission intensity of the Sypro Orange dye was monitored in a LightCycler-480 instrument by running the Protein Melt program. The program was run in a continuous acquisition mode from 25 °C to 95 °C with a ramp rate of 0.06 °C/s (with 10 acquisitions/°C). The data (first derivative of the fluorescence signal as a function of temperature) was analyzed using the LightCycler-480 software for measuring the Tm values with and without the compound. A separate control with buffer alone and buffer with compound was run in the same plate to subtract out the potential interactions of the buffer components and/or the compound with the dye.

[3] = target: T1, PPM1D1–420; test: Differential scanning calorimetry (DSC); type: binding
Method: DSC thermograms were recorded in MicroCal DSC from Malvern with an autosampler. For DSC experiments the purified protein constructs were extensively dialyzed against 25 mM HEPES pH 7.5, 10 mM MgCl2, 150 mM NaCl and 1 mM TCEP. The experiments were performed using 0.4 mg/mL concentration of wild-type or mutant protein (8.5–8.9 µM), with and without GSK2830371 compound at 40 µM and 2% DMSO (v/v). The respective reference scans were run under identical DSC set up conditions and subtracted from each sample scan. The program was run in a continuous acquisition mode from 25 °C to 90 °C at a rate of 120 °C/h The heat capacity curves and midpoint temperature (Tm) were analyzed using Origin 7.0 software.

[4] = Sup Fig 2D, protein with GSK, average of trials
[5] = source data Fig 3C, with GSK, in °C (unit assumed)

Cc1ncc(Cl)cc1NCc1ccc(C(=O)N[C@@H](CC2CCCC2)C(=O)NC2CC2)s1 [GSK2830371]
mode of inhibition ([1]; Michaelis–Menten kinetics, FDP hydrolysis): noncompetitive inhibitor
IC50 ([1]; PPM1D1–420, compound pre-incubated 1 h): ~6 nM
FDP assay rate (Fig 3B) ([1]; [FDP] 25 uM, inhibitor 0.98 (unit not given)): 0.1081 and 0.1018 and 0.09496
FDP assay rate (Fig 3B) ([1]; [FDP] 25 uM, inhibitor 1.95 (unit not given)): 0.0895 and 0.07795 and 0.08008
FDP assay rate (Fig 3B) ([1]; [FDP] 25 uM, inhibitor 3.9 (unit not given)): 0.06795 and 0.05591 and 0.06219
FDP assay rate (Fig 3B) ([1]; [FDP] 25 uM, inhibitor 7.8 (unit not given)): 0.03815 and 0.02398 and 0.0308
FDP assay rate (Fig 3B) ([1]; [FDP] 25 uM, inhibitor 15.6 (unit not given)): 0.01708 and 0.01354 and 0.01271
FDP assay rate (Fig 3B) ([1]; [FDP] 50 uM, inhibitor 0.98 (unit not given)): 0.154 and 0.1613 and 0.1584
FDP assay rate (Fig 3B) ([1]; [FDP] 50 uM, inhibitor 1.95 (unit not given)): 0.1193 and 0.1343 and 0.126
FDP assay rate (Fig 3B) ([1]; [FDP] 50 uM, inhibitor 3.9 (unit not given)): 0.09839 and 0.1118 and 0.09908
FDP assay rate (Fig 3B) ([1]; [FDP] 50 uM, inhibitor 7.8 (unit not given)): 0.04672 and 0.06633 and 0.05157
FDP assay rate (Fig 3B) ([1]; [FDP] 50 uM, inhibitor 15.6 (unit not given)): 0.02583 and 0.03504 and 0.03088
FDP assay rate (Fig 3B) ([1]; [FDP] 100 uM, inhibitor 0.98 (unit not given)): 0.2227 and 0.2316 and 0.2315
FDP assay rate (Fig 3B) ([1]; [FDP] 100 uM, inhibitor 1.95 (unit not given)): 0.1741 and 0.1931 and 0.1914
FDP assay rate (Fig 3B) ([1]; [FDP] 100 uM, inhibitor 3.9 (unit not given)): 0.1254 and 0.1375 and 0.1433
FDP assay rate (Fig 3B) ([1]; [FDP] 100 uM, inhibitor 7.8 (unit not given)): 0.08834 and 0.102 and 0.1128
FDP assay rate (Fig 3B) ([1]; [FDP] 100 uM, inhibitor 15.6 (unit not given)): 0.04867 and 0.06283 and 0.04506
FDP assay rate (Fig 3B) ([1]; [FDP] 100 uM, inhibitor 31.3 (unit not given)): 0.02471 and 0.03171 and 0.02136
FDP assay rate (Fig 3B) ([1]; [FDP] 200 uM, inhibitor 0.98 (unit not given)): 0.2541 and 0.2837 and 0.2718
FDP assay rate (Fig 3B) ([1]; [FDP] 200 uM, inhibitor 1.95 (unit not given)): 0.1754 and 0.2253 and 0.2249
FDP assay rate (Fig 3B) ([1]; [FDP] 200 uM, inhibitor 3.9 (unit not given)): 0.1214 and 0.1628 and 0.1643
FDP assay rate (Fig 3B) ([1]; [FDP] 200 uM, inhibitor 7.8 (unit not given)): 0.119 and 0.111 and 0.098
FDP assay rate (Fig 3B) ([1]; [FDP] 200 uM, inhibitor 15.6 (unit not given)): 0.06395 and 0.07091 and 0.07759
FDP assay rate (Fig 3B) ([1]; [FDP] 200 uM, inhibitor 31.3 (unit not given)): 0.03445 and 0.04201 and 0.04948
FDP assay rate (Fig 3B) ([1]; [FDP] 200 uM, inhibitor 62.5 (unit not given)): 0.03178 and 0.03296 and 0.03025
FDP assay rate (Fig 3B) ([1]; [FDP] 400 uM, inhibitor 0.98 (unit not given)): 0.3661 and 0.3766 and 0.3211
FDP assay rate (Fig 3B) ([1]; [FDP] 400 uM, inhibitor 1.95 (unit not given)): 0.2969 and 0.3135 and 0.2543
FDP assay rate (Fig 3B) ([1]; [FDP] 400 uM, inhibitor 3.9 (unit not given)): 0.2182 and 0.2333 and 0.1765
FDP assay rate (Fig 3B) ([1]; [FDP] 400 uM, inhibitor 7.8 (unit not given)): 0.2094 and 0.221 and 0.1442
FDP assay rate (Fig 3B) ([1]; [FDP] 400 uM, inhibitor 15.6 (unit not given)): 0.1122 and 0.1116 and 0.1013
FDP assay rate (Fig 3B) ([1]; [FDP] 400 uM, inhibitor 31.3 (unit not given)): 0.06577 and 0.07799 and 0.08598
FDP assay rate (Fig 3B) ([1]; [FDP] 400 uM, inhibitor 62.5 (unit not given)): 0.04782 and 0.06273 and 0.0378
FDP assay rate (Fig 3B) ([1]; [FDP] 400 uM, inhibitor 125 (unit not given)): 0.03598 and 0.04023 and 0.04026
FDP Assay, signal relative to 0 nM GSK (=100) ([1]; [GSK] 0.292969 nM): 86.8743 and 86.4893
FDP Assay, signal relative to 0 nM GSK (=100) ([1]; [GSK] 0.585938 nM): 87.0301 and 86.6545
FDP Assay, signal relative to 0 nM GSK (=100) ([1]; [GSK] 1.17188 nM): 79.2709 and 79.2522
FDP Assay, signal relative to 0 nM GSK (=100) ([1]; [GSK] 2.34375 nM): 68.8335 and 60.4469
FDP Assay, signal relative to 0 nM GSK (=100) ([1]; [GSK] 4.6875 nM): 48.948 and 39.1972
FDP Assay, signal relative to 0 nM GSK (=100) ([1]; [GSK] 9.375 nM): 35.4075 and 36.7435
FDP Assay, signal relative to 0 nM GSK (=100) ([1]; [GSK] 18.75 nM): 24.9745 and 29.6638
FDP Assay, signal relative to 0 nM GSK (=100) ([1]; [GSK] 37.5 nM): 10.1395 and 7.848
FDP Assay, signal relative to 0 nM GSK (=100) ([1]; [GSK] 75 nM): 7.727 and 7.844
FDP Assay, signal relative to 0 nM GSK (=100) ([1]; [GSK] 150 nM): 2.646 and -0.6809
FDP Assay, signal relative to 0 nM GSK (=100) ([1]; [GSK] 300 nM): 0.03588 and 0.07574
DSF melting temperature with GSK2830371, Average ([2]; PPM1D 1-420, average of 4 trials, in °C (unit assumed)): 59.7917
DSF melting temperature with GSK2830371 ([2]; PPM1D 1-420, individual trials, in °C (unit assumed)): 59.846 and 59.6596 and 59.8596 and 59.8015
ΔTm at 40 µM ([2]; PPM1D1–420, 40 µM compound, read-out: thermal shift by DSF): ~8 °C
DSF Trial 1 (melting temperature) ([2]; Sup Fig 2D, protein with GSK vs WT (DMSO), trial 1): 59.84 ˚C
DSF Trial 2 (melting temperature) ([2]; Sup Fig 2D, protein with GSK vs WT (DMSO), trial 2): 59.65 ˚C
DSF Trial 3 (melting temperature) ([2]; Sup Fig 2D, protein with GSK vs WT (DMSO), trial 3): 59.85 ˚C
DSF Average (melting temperature) [2, 4]: 59.78 ˚C
DSF average (Tm) ([2]; source data Fig 3C, with GSK, column head empty, in °C (unit assumed)): 59.78
DSF Trial 1 (Tm) [2, 5]: 59.84
DSF Trial 2 (Tm) [2, 5]: 59.65
DSF Trial 3 (Tm) [2, 5]: 59.85
ΔTm at 40 µM ([3]; PPM1D1–420, 40 µM compound, read-out: thermal shift by DSC): 8 °C
DSC Trial 1 (melting temperature) ([3]; Sup Fig 2D, protein with GSK vs WT alone, trial 1): 62.26 ˚C
DSC Trial 2 (melting temperature) ([3]; Sup Fig 2D, protein with GSK vs WT alone, trial 2): 62.33 ˚C
DSC Trial 3 (melting temperature) ([3]; Sup Fig 2D, protein with GSK vs WT alone, trial 3): 62.14 ˚C
DSC Average (melting temperature) [3, 4]: 62.2433 ˚C
DSC Average (Tm) [3, 5]: 62.2433
DSC Trial 1 (Tm) [3, 5]: 62.26
DSC Trial 2 (Tm) [3, 5]: 62.33
DSC Trial 3 (Tm) [3, 5]: 62.14
